Assay results reported in US8691842B2, “Pharmaceutical composition for preventing or treating rheumatoid arthritis, containing rebamipide” (Catholic University Industry Academic Cooperation Foundation, priority 2009, dated 2014).
Entries after “also recorded” stand apart in the source; their conditions may differ.

Experiments:
Format in all cases: in vivo, DBA/1J mice
[1] = tested on: CII-specific immunoglobulin (total IgG); test: Serologic test (ELISA) measuring collagen-specific antibody in serum of CIA animals; conditions: CIA mice, rebamipide orally, serum diluted 1:8000, FIG. 3
[2] = tested on: collagen induced arthritis (CIA) animal model; test: Histological test of joints and cartilage in CIA animals; conditions: CIA mice, FIG. 2
[3] = tested on: collagen induced arthritis (CIA) animal model; test: Average arthritis score in collagen induced arthritis (CIA) animals; conditions: CIA mice; rebamipide 0.6 mg/kg or 6 mg/kg orally, every other day, ten times; evaluated second to tenth week; FIG. 1

Question: Which results are given for `O=C(NC(Cc1cc(=O)[nH]c2ccccc12)C(=O)O)c1ccc(Cl)cc1` (stereo not shown) [rebamipide]?
Answer: level of Type II collagen-specific immunoglobulin (total IgG) in serum [1]: significantly decreased; degree of joint and cartilage destruction ([2]; rebamipide 0.6 mg/kg or 6 mg/kg orally, sacrificed after 10 weeks, hematoxylin and eosin, toluidine blue, safranin O): remarkably reduced; degree of cartilage destruction ([2]; rebamipide orally, histological assay): improved, being similar to that of a normal mouse; arthritis score [3]: dose-dependently decreased; also recorded: gradually decreased
